Measurements taken from US12473250B2, “Molecular design of new antibiotics and antibiotic adjuvants against MCR strains” (priority 2019, dated 2025).

Legend:
[1] = biological target: T1, MCR-1 protein (Escherichia coli, UniProt A0A0R6L508); experiment: Fluorescence quenching of MCR-1 protein; type: binding; settings: autofluorescence at 323 nm; increasing LC100 concentration
T1 construct: purchased Bioprocessing technology institute, A*STAR (Singapore, Singapore)
Procedure: However, EtBr is membrane impermeable, which means that it can only enter the bacterial cell and bind to DNA and emit fluorescence only when both the bacterial outer and inner membranes are perturbed. […] It is also possible that LC100 may have other targets. One possible target is the MCR-1 protein. To understand the interaction of LC100 and the MCR-1 protein, the fluorescence of MCR-1 protein in the presence of different concentration of LC100 was measured. MCR-1 protein contains several tryptophan residues, and autofluoresces at 323 nm.

[2] = test system: colistin resistant MCR (−) E. Cloacae strain 7023456439; experiment: Synergy study: colistin MIC in the presence of compound; type: cell-based; settings: strain 7023456439 E. Cloacae
Outline: (§1)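 After 24 hours, MIC was read as the lowest concentration without visible growth. Drugs were tested singly and in combination by CLSI broth microdilution, equal-amount colistin:LC compound mixtures serially diluted 2-fold at a fixed synergy concentration.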

[3] = test system: colistin resistant MCR (+) E. Coli strains; experiment: as above; type: cell-based
Outline: as §1

[4] = test system: colistin resistant MCR (−) E. Coli strains; experiment: as above; type: cell-based
Outline: as §1

[5] = test system: EC strains (CRE strains, colistin sensitive); experiment: MIC of polymyxin B or colistin alone (Table 4); type: cell-based, E. coli; design: unit: μg/mL
Procedure: MIC experiments of the antimicrobial agents were determined by a modified broth microdilution method in accordance with the Clinical and Laboratory Standards Institute (CLSI) guidelines using 96 well culture plates. In brief, serial dilutions of all plates were prepared at different concentrations (μg). The inoculum suspension was prepared by adding isolated colonies from a 18-20 hours on TSA plate into phosphate buffer (0.31 mM, pH 7.2) or in water for injection (BBraun) and adjusting the suspension to a turbidity equivalent to 0.5 McFarland Standard. Each well contained a final bacterial concentration of approximately 5×10^5 colony forming units (CFU)/mL. The plate was covered and incubated at 35° C. for 24 hours. […] For the microdilution plates, turbidity in wells can be measured at OD600 using TECAN infinite M200Pro. MIC was determined as […] concentration that gives a 99 percent inhibition.

T1 sequence (A0A0R6L508 whole entry): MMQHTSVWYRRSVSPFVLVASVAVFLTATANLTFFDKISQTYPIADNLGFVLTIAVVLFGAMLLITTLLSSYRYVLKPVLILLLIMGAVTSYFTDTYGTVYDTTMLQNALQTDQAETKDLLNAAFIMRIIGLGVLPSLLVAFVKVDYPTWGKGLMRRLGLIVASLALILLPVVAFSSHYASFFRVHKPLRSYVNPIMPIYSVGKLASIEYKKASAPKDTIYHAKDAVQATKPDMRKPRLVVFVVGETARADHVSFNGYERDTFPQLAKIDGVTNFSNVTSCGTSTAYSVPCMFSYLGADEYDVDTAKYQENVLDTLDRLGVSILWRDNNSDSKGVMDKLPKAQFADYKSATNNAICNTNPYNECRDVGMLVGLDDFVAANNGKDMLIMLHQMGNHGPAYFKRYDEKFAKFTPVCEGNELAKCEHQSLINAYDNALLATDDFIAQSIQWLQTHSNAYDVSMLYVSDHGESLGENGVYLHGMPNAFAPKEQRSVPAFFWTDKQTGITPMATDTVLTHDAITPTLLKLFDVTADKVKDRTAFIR

With `CCN(CC)CCCCOc1ccc(/C=C/C(=O)c2ccc(OCCCCN(CC)CC)c(CC=C(C)C)c2O)cc1` [LC100] the “fluorescence of MCR-1 protein (quenching)” value [1] was “the fluorescence decreases”, the “Colistin MIC in the presence of the compound” value (from here on “Colistin MIC … of the compound”) ([2]; compound at 2 μg) was <0.0975 µg/mL and the “Colistin MIC … of the compound” value ([2]; compound at 5 μg (Table 2a: 5 ug/ml)) was 0.195 µg/mL. For the same compound, the “Colistin MIC … of the compound” value ([2]; compound at 10 μg (Table 2a: 10 ug/ml)) was <0.098 µg/mL, the “Colistin MIC … of the compound” value ([2]; compound at 10 μg (Table 2a: 10 ug/ml), listed as LC 100) was <0.0975 µg/mL and the “Colistin MIC in the presence of LC100” value ([3]; LC100 greater than 5 μg/ml, as low as) was 0.0975 µg/mL. For the same compound, the “concentration at which the compound shows synergy with colistin” value ([3]; against mcr-1 bacteria) was 2 µg/mL, the synergy with colistin ([3]; against mcr-1 bacteria, in words) was “excellent synergy” and the “Colistin MIC … of the compound” value ([3]; strain 6075066346, MCR(+), compound at 2 μg) was 1.56 µg/mL. The “Colistin MIC … of the compound” value ([3]; strain 6075066346, MCR(+), compound at 3 μg) was 0.78 µg/mL, the “Colistin MIC … of the compound” value ([3]; strain 6075066346, MCR(+), compound at 5 μg (Table 2a: 5 ug/ml)) was 0.195 µg/mL and the “Colistin MIC … of the compound” value ([3]; strain 6075066346, MCR(+), compound at 10 μg (Table 2a: 10 ug/ml)) was <0.098 µg/mL. For the same compound, the “Colistin MIC … of the compound” value ([3]; strain 6075066346, MCR(+), compound at 10 μg (Table 2a: 10 ug/ml), listed as LC 100) was <0.0975 µg/mL, the “Colistin MIC … of the compound” value ([3]; strain 6083655967, MCR(+), compound at 2 μg) was 1.56 µg/mL and the “Colistin MIC … of the compound” value ([3]; strain 6083655967, MCR(+), compound at 3 μg) was 0.39 µg/mL. For the same compound, the “Colistin MIC … of the compound” value ([3]; strain 6083655967, MCR(+), compound at 5 μg (Table 2a: 5 ug/ml)) was 0.195 µg/mL, the “Colistin MIC … of the compound” value ([3]; strain 6083655967, MCR(+), compound at 10 μg (Table 2a: 10 ug/ml)) was <0.098 µg/mL and the “Colistin MIC … of the compound” value ([3]; strain 6083655967, MCR(+), compound at 10 μg (Table 2a: 10 ug/ml), listed as LC 100) was <0.0975 µg/mL. For the same compound, the “Colistin MIC … of the compound” value ([3]; strain 6103645107, MCR(+), compound at 2 μg) was 1.56 µg/mL, the “Colistin MIC … of the compound” value ([3]; strain 6103645107, MCR(+), compound at 3 μg) was 0.78 µg/mL and the “Colistin MIC … of the compound” value ([3]; strain 6103645107, MCR(+), compound at 5 μg (Table 2a: 5 ug/ml)) was 0.195 µg/mL. The “Colistin MIC … of the compound” value ([3]; strain 6103645107, MCR(+), compound at 10 μg (Table 2a: 10 ug/ml)) was <0.098 µg/mL, the “Colistin MIC … of the compound” value ([3]; strain 6103645107, MCR(+), compound at 10 μg (Table 2a: 10 ug/ml), listed as LC 100) was <0.0975 µg/mL and the “Colistin MIC … of the compound” value ([3]; strain 6123520276, MCR(+), compound at 2 μg) was 1.56 µg/mL. For the same compound, the “Colistin MIC … of the compound” value ([3]; strain 6123520276, MCR(+), compound at 3 μg) was 0.78 µg/mL, the “Colistin MIC … of the compound” value ([3]; strain 6123520276, MCR(+), compound at 5 μg (Table 2a: 5 ug/ml)) was 0.195 µg/mL and the “Colistin MIC … of the compound” value ([3]; strain 6123520276, MCR(+), compound at 10 μg (Table 2a: 10 ug/ml)) was <0.098 µg/mL. For the same compound, the “Colistin MIC … of the compound” value ([3]; strain 6123520276, MCR(+), compound at 10 μg (Table 2a: 10 ug/ml), listed as LC 100) was <0.0975 µg/mL, the “Colistin MIC … of the compound” value ([3]; strain 7013177695, MCR(+), compound at 2 μg) was 1.56 µg/mL and the “Colistin MIC … of the compound” value ([3]; strain 7013177695, MCR(+), compound at 3 μg) was 0.39 µg/mL. For the same compound, the “Colistin MIC … of the compound” value ([3]; strain 7013177695, MCR(+), compound at 5 μg (Table 2a: 5 ug/ml)) was 0.195 µg/mL, the “Colistin MIC … of the compound” value ([3]; strain 7013177695, MCR(+), compound at 10 μg (Table 2a: 10 ug/ml)) was <0.098 µg/mL and the “Colistin MIC … of the compound” value ([3]; strain 7013177695, MCR(+), compound at 10 μg (Table 2a: 10 ug/ml), listed as LC 100) was <0.0975 µg/mL. The “Colistin MIC … of the compound” value ([3]; strain 7023436560, MCR(+), compound at 2 μg) was 1.56 µg/mL, the “Colistin MIC … of the compound” value ([3]; strain 7023436560, MCR(+), compound at 3 μg) was 0.39 µg/mL and the “Colistin MIC … of the compound” value ([3]; strain 7023436560, MCR(+), compound at 5 μg (Table 2a: 5 ug/ml)) was 0.195 µg/mL. For the same compound, the “Colistin MIC … of the compound” value ([3]; strain 7023436560, MCR(+), compound at 10 μg (Table 2a: 10 ug/ml)) was <0.098 µg/mL, the “Colistin MIC … of the compound” value ([3]; strain 7023436560, MCR(+), compound at 10 μg (Table 2a: 10 ug/ml), listed as LC 100) was <0.0975 µg/mL and the “Colistin MIC … of the compound” value ([3]; strain 7023444207, MCR(+), compound at 2 μg) was 1.56 µg/mL. The “Colistin MIC … of the compound” value ([3]; strain 7023444207, MCR(+), compound at 3 μg) was 0.39 µg/mL, the “Colistin MIC … of the compound” value ([3]; strain 7023444207, MCR(+), compound at 5 μg (Table 2a: 5 ug/ml)) was 0.195 µg/mL and the “Colistin MIC … of the compound” value ([3]; strain 7023444207, MCR(+), compound at 10 μg (Table 2a: 10 ug/ml)) was <0.098 µg/mL. For the same compound, the “Colistin MIC … of the compound” value ([3]; strain 7023444207, MCR(+), compound at 10 μg (Table 2a: 10 ug/ml), listed as LC 100) was <0.0975 µg/mL, the “colistin level to which E. coli became sensitive in the presence of LC100” value ([4]; resistant bacteria without mcr-1) was < 0.5 µg/mL and the “Colistin MIC … of the compound” value ([4]; strain 6083672926, MCR(−), compound at 2 μg) was <0.0975 µg/mL. The “Colistin MIC … of the compound” value ([4]; strain 6083672926, MCR(−), compound at 5 μg (Table 2a: 5 ug/ml)) was 0.195 µg/mL, the “Colistin MIC … of the compound” value ([4]; strain 6083672926, MCR(−), compound at 10 μg (Table 2a: 10 ug/ml)) was <0.098 µg/mL and the “Colistin MIC … of the compound” value ([4]; strain 6083672926, MCR(−), compound at 10 μg (Table 2a: 10 ug/ml), listed as LC 100) was <0.0975 µg/mL. The “Colistin MIC … of the compound” value ([4]; strain 7023446108, MCR(−), compound at 2 μg) was <0.0975 µg/mL, the “Colistin MIC … of the compound” value ([4]; strain 7023446108, MCR(−), compound at 5 μg (Table 2a: 5 ug/ml)) was 0.195 µg/mL and the “Colistin MIC … of the compound” value ([4]; strain 7023446108, MCR(−), compound at 10 μg (Table 2a: 10 ug/ml)) was <0.098 µg/mL. The “Colistin MIC … of the compound” value ([4]; strain 7023446108, MCR(−), compound at 10 μg (Table 2a: 10 ug/ml), listed as LC 100) was <0.0975 µg/mL, the “Colistin MIC … of the compound” value ([4]; strain 7033607097, MCR(−), compound at 2 μg) was <0.0975 µg/mL and the “Colistin MIC … of the compound” value ([4]; strain 7033607097, MCR(−), compound at 5 μg (Table 2a: 5 ug/ml)) was 0.195 µg/mL. The “Colistin MIC … of the compound” value ([4]; strain 7033607097, MCR(−), compound at 10 μg (Table 2a: 10 ug/ml)) was <0.098 µg/mL and the “Colistin MIC … of the compound” value ([4]; strain 7033607097, MCR(−), compound at 10 μg (Table 2a: 10 ug/ml), listed as LC 100) was <0.0975 µg/mL.
Colistin was tested, and the “MIC (antibiotic alone)” value ([5]; strain EC 17232) was 0.195, the “MIC (antibiotic alone)” value ([5]; strain EC 17528) was 0.78 and the “MIC (antibiotic alone)” value ([5]; strain EC 19963) was 1.56.
